Measured values reported in PMC8951032, “Study of Biological Activities and ADMET-Related Properties of Novel Chlorinated N-arylcinnamamides” (International Journal of Molecular Sciences, 2022).
Converted amounts (≈) assume the structure as drawn. Like-named read-outs stand apart in the source and are kept apart here.

Columns and labels:
[1] = system: S. aureus, MRSA, E. faecalis, VRE, M. smegmatis, M. marinum; assay: In vitro antimicrobial screening, all tested strains; assay type: cell-based; conditions: antibacterial/antimycobacterial screening
[2] = Lipophilicity determination by RP-HPLC (log k, log D); assay type: physicochemical; conditions: for log k: MeOH 72%/H2O 28%; for log D6.5: MeOH 72%/acetate buffered saline pH 6.5; for log D7.4: MeOH 72%/acetate buffered saline pH 7.4
Experimental: In addition to the mentioned ADME profile, it is responsible for interactions with biological targets. Lipophilicity is recognized as one of the most important parameters influencing ADME and bioactivity and is also part, e.g., of Lipinski’s Rule of Five (Ro5). This thermodynamic parameter describing the molecule’s affinity for an aqueous or relatively lipophilic environment can be characterized by the logarithm of the partition coefficient (log P). In this study, lipophilicity was measured by reversed-phase high-performance liquid chromatography (RP-HPLC) under isocratic conditions with methanol as the organic modifier in the aqueous mobile phase and the logarithm of the capacity factor k was calculated, which is used as the lipophilicity index converted to the log P scale. In addition to the log k values, the logarithm of the distribution coefficient DpH at pH 6.5 and 7.4 was determined to clarify the behavior of the compounds under physiological conditions and possible ionization. Instead of water, a buffer of suitable pH was used as part of the mobile phase. In addition to the above-mentioned experimental methods, commercially available ChemBioDraw Ultra 13.0 and ACD/Percepta ver. 2012 programs were used to calculate the lipophilicity values of all prepared compounds.
A HPLC separation module Waters Alliance 2695 XE equipped with a Waters Dual Absorbance Detector 2486 (Waters Corp., Milford, MA, USA) was used. A chromatographic column Symmetry® C18 5 μm, 4.6 × 250 mm, Part No. W21751W016 (Waters Corp., Milford, MA, USA) was used. The HPLC separation process was monitored by Empower® 3 Chromatography Manager Software (Waters Corp.). Isocratic elution by a mixture of MeOH p.a. (72%) and H2O-HPLC Mili-Q grade (28%) as a mobile phase was used for the determination of capacity factor k. Isocratic elution by a mixture of MeOH p.a. (72%) and acetate buffered saline (pH 7.4 and pH 6.5) (28%) as a mobile phase was used for the determination of distribution coefficient expressed as D7.4 and D6.5. The total flow of the column was 1.0 mL/min, injection 20 μL, column temperature 40 °C, and sample temperature 10 °C. The detection wavelength of 210 nm was chosen. A KI methanolic solution was used for the determination of the dead times (tD). Retention times (tR) were measured in minutes. The capacity factors k were calculated according to the formula k = (tR − tD)/tD, where tR is the retention time of the solute, and tD is the dead time obtained using an unretained analyte. The distribution coefficients DpH were calculated according to the formula DpH = (tR − tD)/tD. Each experiment was repeated three times.

[3] = system: vancomycin-resistant E. faecalis (VRE) 725B; assay: In vitro antienterococcal activity, microtitration broth MIC; assay type: cell-based, Enterococcus faecalis; conditions: 24 h
[4] = system: methicillin-resistant S. aureus SA 3202; assay: In vitro antistaphylococcal activity, microtitration broth MIC; assay type: cell-based; conditions: Staphylococcus aureus
[5] = system: Staphylococcus aureus ATCC 29213; assay: as above; assay type: cell-based; conditions: Staphylococcus aureus
[6] = system: methicillin-resistant S. aureus SA 630; assay: as above; assay type: cell-based; conditions: Staphylococcus aureus
[7] = system: methicillin-resistant S. aureus (MRSA) 63718; assay: as above; assay type: cell-based; conditions: Staphylococcus aureus

SMILES | antimicrobial activity (in words) [1] | log k [2] | log D6.5 [2] | log D7.4 [2] | MIC ([3]; read-out: MIC VRE3) | MIC ([3]; read-out: log(1/MIC [M]) VRE3 (converted)) | MIC ([4]; 24 h, MRSA SA 3202, read-out: log(1/MIC [M]) MRSA3 (converted)) | MIC ([4]; MRSA SA 3202, 24 h, read-out: MIC MRSA3) | MIC ([5]; ATCC29213, 24 h, S. aureus ATCC 29213, read-out: log(1/MIC [M]) SA (converted)) | MIC ([5]; ATCC29213, S. aureus ATCC 29213, 24 h, read-out: MIC SA) | MIC ([6]; 24 h, MRSA SA 630, read-out: log(1/MIC [M]) MRSA2 (converted)) | MIC ([6]; MRSA SA 630, 24 h, read-out: MIC MRSA2) | MIC ([7]; 24 h, MRSA 63718, read-out: log(1/MIC [M]) MRSA1 (converted)) | MIC ([7]; MRSA 63718, 24 h, read-out: MIC MRSA1)
O=C(/C=C/c1ccc(Cl)cc1)Nc1ccc(OC(F)(F)F)cc1Br [1r, (2E)-N-[2-Bromo-4-(trifluoromethoxy)phenyl]-3-(4-chlorophenyl)prop-2-enamide] | total loss of any effect | 1.0278 | 1.0236 | 1.0284 |  |  |  |  |  |  |  |  |  | 
O=C(/C=C/c1ccc(Cl)c(Cl)c1)Nc1ccc(OC(F)(F)F)cc1Br [2r, (2E)-N-[2-Bromo-4-(trifluoromethoxy)phenyl]-3-(3,4-dichlorophenyl)prop-2-enamide] | total loss of any effect | 1.2065 | 1.2373 | 1.2178 |  |  |  |  |  |  |  |  |  | 
CC1(C)S[C@@H]2[C@H](NC(=O)[C@H](N)c3ccccc3)C(=O)N2[C@H]1C(=O)O [AMP, ampicillin, reference compound] |  |  |  |  | 5.72e-06 M (≈ 2 µg/mL) | 5.75e-06 M (≈ 2.01 µg/mL) | > 4.57e-05 M | > 4.58e-05 M | 5.75e-06 M (≈ 2.01 µg/mL) | 5.72e-06 M (≈ 2 µg/mL) | > 4.57e-05 M | > 4.58e-05 M | 4.57e-05 M (≈ 16 µg/mL) | 4.58e-05 M (≈ 16 µg/mL)
